Test results from patent publication US20090247559A1 (Exelixis, Inc., priority 2007, published 2009).
Like-named read-outs stand apart in the source and are kept apart here.

Tests used:
CDC7 = CDC7 (Homo sapiens, UniProt O00311); experiment: CDC7 inhibition, biochemical chemiluminescence assay (Kinase Glo, IC50 determination)
Experimental: Characterization of CDC7 Inhibition in a Biochemical Chemiluminesence Assay (IC50 Determination):
The IC50 evaluation of compounds against the CDC7 enzyme was performed in a Chemiluminesence assay utilizing a Greiner 384-well white binding plate format. […] Upon addition of 10 μL of CDC-7 (GB) to the designated well plates and subsequent incubation for ten minutes at ambient temperature, 10 μL of ATP mix in Tris Base was added. Following an incubation period of 90 minutes at ambient temperature (24-27° C.), 20 μL of Kinase Glo (Promega) was added to measure kinase activity by quantitating the amount of ATP remaining in solution. The luminescence was measured following a Luciferase Protocol on either EnVision or Victor plate readers.

[1] = target: PIM (PIM-1, PIM-2, and/or PIM-3); experiment: PIM-1, PIM-2 and PIM-3 inhibition, biochemical chemiluminescence assays (Kinase Glo, IC50 determination); conditions: Table 1 activity class; PIM refers to PIM-1, PIM-2, and/or PIM-3; read-out: PIM IC50 (Activity B)
CK2 = CK2 (Homo sapiens, UniProt P68400); experiment: CK2 inhibition, biochemical chemiluminescence holoenzyme assay (Kinase Glo, IC50 determination); conditions: Table 1 activity class; symbol given only if active; read-out: CK2 IC50 (Activity C)
Sequence of CK2 (P68400 whole entry): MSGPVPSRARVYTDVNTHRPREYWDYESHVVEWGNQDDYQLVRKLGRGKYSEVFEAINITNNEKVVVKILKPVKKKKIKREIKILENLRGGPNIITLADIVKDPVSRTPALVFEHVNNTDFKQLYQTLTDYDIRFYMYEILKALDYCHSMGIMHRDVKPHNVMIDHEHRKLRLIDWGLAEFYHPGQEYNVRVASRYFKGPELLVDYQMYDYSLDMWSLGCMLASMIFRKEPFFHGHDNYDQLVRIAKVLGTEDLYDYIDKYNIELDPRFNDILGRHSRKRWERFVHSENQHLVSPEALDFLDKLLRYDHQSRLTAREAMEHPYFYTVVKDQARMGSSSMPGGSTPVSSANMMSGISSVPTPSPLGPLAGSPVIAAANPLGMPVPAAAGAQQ
Sequence of CK2 (P67870 whole entry partner): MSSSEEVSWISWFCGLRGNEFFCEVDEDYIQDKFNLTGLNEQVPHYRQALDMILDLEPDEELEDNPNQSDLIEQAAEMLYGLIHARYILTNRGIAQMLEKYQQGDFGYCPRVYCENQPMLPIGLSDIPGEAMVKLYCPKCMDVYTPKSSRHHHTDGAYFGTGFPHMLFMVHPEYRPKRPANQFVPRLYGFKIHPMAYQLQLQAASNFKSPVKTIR
Method in brief: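 Holoenzyme CK2 assay; compounds pre-incubated with substrate and enzyme, then reacted 150 min at 24-27° C. Remaining ATP measured as luminescence with Kinase Glo, and IC50 derived from the signal.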

[2] = Table 1 activity class, symbol given only if active, read-out: CDC7 IC50 (Activity A)
[3] = compounds in Table 1, read-out: CDC7 IC50 value

Sequence of CDC7 (O00311 whole entry): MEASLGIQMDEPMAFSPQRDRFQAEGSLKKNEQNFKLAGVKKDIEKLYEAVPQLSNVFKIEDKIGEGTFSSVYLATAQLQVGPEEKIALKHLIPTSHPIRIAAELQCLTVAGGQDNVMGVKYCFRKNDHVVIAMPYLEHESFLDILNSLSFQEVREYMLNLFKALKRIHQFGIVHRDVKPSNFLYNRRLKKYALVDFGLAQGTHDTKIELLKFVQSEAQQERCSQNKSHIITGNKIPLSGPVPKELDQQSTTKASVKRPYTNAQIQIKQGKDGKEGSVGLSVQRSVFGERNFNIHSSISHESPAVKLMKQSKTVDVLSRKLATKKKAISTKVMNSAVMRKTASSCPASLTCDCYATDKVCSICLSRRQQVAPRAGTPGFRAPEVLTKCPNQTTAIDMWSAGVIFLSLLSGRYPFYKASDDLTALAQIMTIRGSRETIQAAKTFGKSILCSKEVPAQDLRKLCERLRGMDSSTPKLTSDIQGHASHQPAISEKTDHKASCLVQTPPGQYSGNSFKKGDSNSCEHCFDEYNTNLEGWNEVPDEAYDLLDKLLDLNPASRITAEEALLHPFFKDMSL
Sequence of CDC7 (Q9UBU7 whole entry partner): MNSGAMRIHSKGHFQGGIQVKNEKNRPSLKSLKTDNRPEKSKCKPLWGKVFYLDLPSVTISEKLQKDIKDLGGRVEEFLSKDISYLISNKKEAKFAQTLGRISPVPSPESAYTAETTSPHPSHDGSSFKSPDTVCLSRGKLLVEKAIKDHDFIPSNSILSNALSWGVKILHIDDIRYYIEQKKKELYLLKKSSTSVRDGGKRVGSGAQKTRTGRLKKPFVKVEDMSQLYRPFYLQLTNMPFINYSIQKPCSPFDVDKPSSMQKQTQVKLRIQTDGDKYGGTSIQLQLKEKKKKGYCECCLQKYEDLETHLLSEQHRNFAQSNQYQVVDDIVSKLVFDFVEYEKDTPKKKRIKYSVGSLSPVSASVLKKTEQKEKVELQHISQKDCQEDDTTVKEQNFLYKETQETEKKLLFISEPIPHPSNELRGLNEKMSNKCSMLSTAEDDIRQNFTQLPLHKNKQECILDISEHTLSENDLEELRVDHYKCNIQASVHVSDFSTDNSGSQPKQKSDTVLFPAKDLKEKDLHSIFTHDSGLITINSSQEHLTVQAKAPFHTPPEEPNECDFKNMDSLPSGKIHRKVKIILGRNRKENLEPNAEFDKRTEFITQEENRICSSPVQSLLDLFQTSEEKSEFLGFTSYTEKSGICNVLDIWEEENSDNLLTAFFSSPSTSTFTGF

SMILES	IC50 (CDC7; [2])	IC50 (CDC7; [3])	IC50 [1]	IC50 (CK2)	IC50 (CDC7; CDC7 IC50 (Activity A), Table 1 activity class, symbol given only if active)	IC50 (CDC7; CDC7 IC50 value, compounds in Table 1)
O=c1[nH]c(CN2CC3CCC2C3O)nc2c1oc1ccc(Br)cc12 (racemic) [Compound 332, 8-bromo-2-((7-hydroxy-2-azabicyclo[2.2.1]heptan-2-yl)methyl)benzofuro[3,2-d]pyrimidin-4(3H)-one]	< 10 µM	< 0.1 µM	< 10 µM	< 10 µM	–	–
O=c1[nH]c(CN2CCCC2)nc2c1oc1ccc(Cl)cc12 [Compound 5, 8-chloro-2-(pyrrolidin-1-ylmethyl)[1]benzofuro[3,2-d]pyrimidin-4(3H)-one]	< 10 µM	< 0.1 µM	< 10 µM	< 10 µM	–	–
CN(C)CCCN1CCN(Cc2nc3c(oc4ccc(Br)cc43)c(=O)[nH]2)CC1 [Compound 9, 8-bromo-2-({4-[3-(dimethylamino)propyl]piperazin-1-yl}methyl)[1]benzofuro[3,2-d]pyrimidin-4(3H)-one]	< 10 µM	–	< 10 µM	–	–	–
O=c1[nH]c(CNc2cccnc2)nc2c1oc1ccc(Br)cc12 [Compound 13, 8-bromo-2-[(pyridin-3-ylamino)methyl][1]benzofuro[3,2-d]pyrimidin-4(3H)-one]	< 10 µM	–	< 10 µM	< 10 µM	–	–
CN(C)C(=O)CN1CCN(Cc2nc3c(oc4ccc(Br)cc43)c(=O)[nH]2)CC1 [Compound 25, 2-{4-[(8-bromo-4-oxo-3,4-dihydro[1]benzofuro[3,2-d]pyrimidin-2-yl)methyl]piperazin-1-yl}-N,N-dimethylacetamide]	< 10 µM	–	< 10 µM	< 10 µM	–	–
O=c1[nH]c(-c2ccc([N+](=O)[O-])cc2Cl)nc2c1oc1ccc(Br)cc12 [Compound 33, 8-Bromo-2-(2-chloro-4-nitrophenyl)[1]benzofuro[3,2-d]pyrimidin-4(3H)-one]	< 10 µM	–	< 10 µM	< 10 µM	–	–
Nc1ccc(-c2nc3c(oc4ccc(Br)cc43)c(=O)[nH]2)c(Cl)c1 [Compound 34, 2-(4-Amino-2-chlorophenyl)-8-bromo[1]benzofuro[3,2-d]pyrimidin-4(3H)-one]	< 10 µM	–	< 10 µM	< 10 µM	–	–
O=c1[nH]c(-c2ccccc2I)nc2c1oc1ccc(Br)cc12 [Compound 40, 8-bromo-2-(2-iodophenyl)[1]benzofuro[3,2-d]pyrimidin-4(3H)-one]	< 10 µM	–	< 10 µM	< 10 µM	–	–
O=c1[nH]c(-c2ccncc2Br)nc2c1oc1ccc(Br)cc12 [Compound 43, 8-bromo-2-(3-bromopyridin-4-yl)[1]benzofuro[3,2-d]pyrimidin-4(3H)-one]	< 10 µM	–	< 10 µM	< 10 µM	–	–
O=c1[nH]c(-c2ccccc2-n2ccnc2)nc2c1oc1ccc(Br)cc12 [Compound 48, 8-bromo-2-[2-(1H-imidazol-1-yl)phenyl][1]benzofuro[3,2-d]pyrimidin-4(3H)-one]	< 10 µM	–	< 10 µM	< 10 µM	–	–
CC(C)(N)c1nc2c(oc3ccc(Cl)cc32)c(=O)[nH]1 [Compound 49, 2-(1-Amino-1-methylethyl)-8-chloro[1]benzofuro[3,2-d]pyrimidin-4(3H)-one]	< 10 µM	< 0.1 µM	< 10 µM	< 10 µM	–	–
Cc1ccccc1-c1nc2c(oc3ccc(Br)cc32)c(=O)[nH]1 [Compound 60, 8-bromo-2-(2-methylphenyl)[1]benzofuro[3,2-d]pyrimidin-4(3H)-one]	< 10 µM	–	< 10 µM	< 10 µM	–	–
O=c1[nH]c(-c2nccs2)nc2c1oc1ccc(Br)cc12 [Compound 86, 8-bromo-2-(1,3-thiazol-2-yl)[1]benzofuro[3,2-d]pyrimidin-4(3H)-one]	< 10 µM	–	< 10 µM	< 10 µM	–	–
NC1(c2nc3c(oc4ccc(Br)cc43)c(=O)[nH]2)CCCCC1 [Compound 542, 2-(1-aminocyclohexyl)-8-bromo[1]benzofuro[3,2-d]pyrimidin-4(3H)-one]	–	–	–	< 10 µM	< 10 µM	< 0.1 µM

More lines, main results first:

IC50 (CDC7; [2])	IC50 (CDC7; [3])	IC50 [1]	IC50 (CK2)	SMILES	IC50 (CDC7; CDC7 IC50 (Activity A), Table 1 activity class, symbol given only if active)	IC50 (CDC7; CDC7 IC50 value, compounds in Table 1)
< 10 µM	–	< 10 µM	< 10 µM	COc1ccc2oc3c(=O)[nH]c(C4CCCN4)nc3c2c1 (stereo in doubt) [Compound 494, 8-(methyloxy)-2-[(2S)-pyrrolidin-2-yl][1]benzofuro[3,2-d]pyrimidin-4(3H)-one]	–	–
< 10 µM	< 0.1 µM	< 10 µM	< 10 µM	COc1ccc2oc3c(=O)[nH]c(C4CCCN4)nc3c2c1 (stereo in doubt) [Compound 495, 8-(methyloxy)-2-[(2R)-pyrrolidin-2-yl][1]benzofuro[3,2-d]pyrimidin-4(3H)-one]	–	–
< 10 µM	–	< 10 µM	< 10 µM	NC(CCc1ccccc1)c1nc2c(oc3ccc(Br)cc32)c(=O)[nH]1 (stereo in doubt) [Compound 537, 2-[(1S)-1-amino-3-phenylpropyl]-8-bromo[1]benzofuro[3,2-d]pyrimidin-4(3H)-one]	–	–
< 10 µM	–	–	< 10 µM	O=C(NCc1ccccc1)C1CCN(Cc2nc3c(oc4ccc(Br)cc43)c(=O)[nH]2)C1 (stereo not drawn) [Compound 266, 1-[(8-bromo-4-oxo-3,4-dihydro[1]benzofuro[3,2-d]pyrimidin-2-yl)methyl]-N-(phenylmethyl)pyrrolidine-3-carboxamide]	–	–
< 10 µM	< 0.1 µM	–	< 10 µM	O=c1[nH]c(C2CNCCO2)nc2c1oc1ccc(Br)cc12 (stereo not drawn) [Compound 298, 8-Bromo-2-morpholin-2-yl[1]benzofuro[3,2-d]pyrimidin-4(3H)-one]	–	–
< 10 µM	< 0.1 µM	–	–	O=C(NCCN1CCCCC1)c1ccc(-c2nc3c(oc4ccc(Br)cc43)c(=O)[nH]2)c(Cl)c1 [Compound 383, 4-(8-bromo-4-oxo-3,4-dihydro[1]benzofuro[3,2-d]pyrimidin-2-yl)-3-chloro-N-(2-piperidin-1-ylethyl)benzamide]	–	–
< 10 µM	–	–	–	O=c1[nH]c(-c2ccc(CNC3CCNCC3)cc2Cl)nc2c1oc1ccc(Br)cc12 [Compound 387, 8-bromo-2-{2-chloro-4-[(piperidin-4-ylamino)methyl]phenyl}[1]benzofuro[3,2-d]pyrimidin-4(3H)-one]	–	–
< 10 µM	< 0.1 µM	< 10 µM	–	O=c1[nH]c(Cc2ccccc2Br)nc2c1oc1ccc(Br)cc12 [Compound 421, 8-bromo-2-[(2-bromophenyl)methyl][1]benzofuro[3,2-d]pyrimidin-4(3H)one]	–	–
< 10 µM	–	< 10 µM	–	O=c1[nH]c(CNCCN2CCCCC2)nc2c1oc1ccc(Br)cc12 [Compound 431, 8-bromo-2-{[(2-piperidin-1-ylethyl)amino]methyl}[1]benzofuro[3,2-d]pyrimidin-4(3H)-one]	–	–
< 10 µM	< 0.1 µM	< 10 µM	–	O=c1[nH]c([C@@H]2CC(F)(F)CN2)nc2c1oc1ccc(Cl)cc12 [Compound 524, 8-chloro-2-[(2S)-4,4-difluoropyrrolidin-2-yl][1]benzofuro[3,2-d]pyrimidin-4(3H)-one]	–	–
< 10 µM	< 0.1 µM	< 10 µM	–	O=c1[nH]c([C@@H]2C[C@H](F)CN2)nc2c1oc1ccc(Cl)cc12 [Compound 525, 8-chloro-2-[(2S,4S)-4-fluoropyrrolidin-2-yl][1]benzofuro[3,2-d]pyrimidin-4(3H)-one]	–	–
< 10 µM	< 0.1 µM	< 10 µM	–	COc1ccc2oc3c(=O)[nH]c([C@@H]4C[C@H](F)CN4)nc3c2c1 [Compound 530, 2-[(2S,4S)-4-fluoropyrrolidin-2-yl]-8-(methyloxy)[1]benzofuro[3,2-d]pyrimidin-4(3H)-one]	–	–
< 10 µM	–	< 10 µM	–	NC(Cc1ccccc1)c1nc2c(oc3ccc(Br)cc32)c(=O)[nH]1 (stereo not drawn) [Compound 535, 2-(1-amino-2-phenylethyl)-8-bromo[1]benzofuro[3,2-d]pyrimidin-4(3H)-one]	–	–
< 10 µM	–	< 10 µM	–	NC(Cc1ccc(OCc2ccccc2)cc1)c1nc2c(oc3ccc(Br)cc32)c(=O)[nH]1 (stereo not drawn) [Compound 536, 2-(1-amino-2-{4-[(phenylmethyl)oxy]phenyl}ethyl)-8-bromo[1]benzofuro[3,2-d]pyrimidin-4(3H)-one]	–	–
< 10 µM	–	< 10 µM	–	COc1ccc(CC(N)c2nc3c(oc4ccc(Br)cc43)c(=O)[nH]2)cc1 (stereo not drawn) [Compound 539, 2-{1-amino-2-[4-(methyloxy)phenyl]ethyl}-8-bromo[1]benzofuro[3,2-d]pyrimidin-4(3H)-one]	–	–
< 10 µM	< 0.1 µM	< 10 µM	–	NC(c1nc2c(oc3ccc(Br)cc32)c(=O)[nH]1)C1CCCCC1 (stereo not drawn) [Compound 541, 2-[amino(cyclohexyl)methyl]-8-bromo[1]benzofuro[3,2-d]pyrimidin-4(3H)-one]	–	–
< 10 µM	–	–	< 10 µM	O=c1[nH]c(-c2ccc(NCC3CCCNC3)cc2Cl)nc2c1oc1ccc(Br)cc12 (stereo not drawn) [Cpd 159, 8-bromo-2-{2-chloro-4-[(piperidin-3-ylmethyl)amino]phenyl}[1]benzofuro[3,2-d]pyrimidin-4(3H)-one]	–	–
